Experimental data as given in DBAASP.
In brackets after ≈: the same amount, converted by molar mass. Several values for one entry are separate records, joined by “and”; a condition that tells them apart may be missing. Equal values may be shown once. One block for each compound: values may come before it.

Key:
Experiment in all cases: ≥ marks a high value that may be exact or a test limit, other limits are often not marked, values filed in µg/mL are converted to µM
[1] = test system: Candida albicans SC5314
[2] = test system: Candida albicans
[3] = test system: Candida glabrata ATCC 15126
[4] = test system: Candida glabrata
[5] = test system: Candida krusei ATCC 6258
[6] = test system: Candida parapsilosis ATCC 22019
[7] = test system: Candida parapsilosis
[8] = test system: Candida tropicalis ATCC 13803
[9] = test system: Candida tropicalis
[10] = test system: Candida glabrata 090902
[11] = test system: Enterococcus faecalis 981
[12] = test system: Escherichia coli ATCC 25922
[13] = test system: Klebsiella pneumoniae 08040724
[14] = test system: Nocardia asteroides 201118
[15] = test system: Pseudomonas aeruginosa CGMCC 1.50
[16] = test system: Staphylococcus aureus ATCC 25923
[17] = test system: Streptococcus mutans UA159
[18] = test system: Streptococcus sanguinis ATCC 10556
[19] = test system: Streptococcus sobrinus ATCC 6715
[20] = test system: Aeromonas sobria
[21] = test system: Bacillus cereus ATCC 10876
[22] = test system: Cutibacterium acnes ATCC 11827
[23] = test system: Enterococcus faecalis ATCC 29212
[24] = test system: Enterococcus faecium 091299
[25] = test system: Escherichia coli 091335
[26] = test system: Klebsiella oxytoca
[27] = test system: Klebsiella pneumoniae
[28] = test system: Nocardia asteroides
[29] = test system: Proteus mirabilis
[30] = test system: Proteus vulgaris
[31] = test system: Pseudomonas aeruginosa 091411
[32] = test system: Pseudomonas aeruginosa 091412
[33] = test system: Staphylococcus aureus ATCC 2592
[34] = test system: Staphylococcus aureus ATCC 6538
[35] = test system: Staphylococcus aureus
[36] = test system: Staphylococcus haemolyticus
[37] = test system: Stenotrophomonas maltophilia
[38] = test system: Streptococcus agalactiae ATCC 27956
[39] = test system: Streptococcus dysgalactiae subsp. dysgalactiae ATCC 27957
[40] = test system: Streptococcus equi subsp. zooepidemicus ATCC 43079

- MIC [1]: 22.5 µM (≈ 25 µg/mL)
- MIC [2]: 63.7 µM (≈ 70.7 µg/mL)
- MIC [3]: 22.5 µM (≈ 25 µg/mL)
- MIC [4]: ≥ 45.1 µM
- MIC [5]: 22.5 µM (≈ 25 µg/mL)
- MIC [6]: ≥ 45.1 µM
- MIC [7]: 31.9 µM (≈ 35.4 µg/mL)
- MIC [8]: 11.3 µM (≈ 12.5 µg/mL)
- MIC [9]: 11.3 µM (≈ 12.5 µg/mL)
Compound: CC(C)C[C@H](NC(=O)[C@H](CC(C)C)NC(=O)[C@H](Cc1ccc(O)cc1)NC(=O)[C@H](CCCCN)NC(=O)[C@@H](N)CS)C(=O)N[C@@H](CCCCN)C(=O)N[C@@H](Cc1c[nH]c2ccccc12)C(=O)N[C@@H](CCCN=C(N)N)C(=O)O [CKYLLKWR]

- MIC [10]: ≥ 37.5 µM
- MIC [11]: 9.4 µM (≈ 24.2 µg/mL)
- MIC [12]: 37.5 µM (≈ 96.6 µg/mL)
- MIC [13]: ≥ 75 µM
- MIC [14]: 1.2 µM (≈ 3.09 µg/mL)
- MIC [15]: ≥ 75 µM
- MIC [16]: 4.7 µM (≈ 12.1 µg/mL)
Compound: CC[C@H](C)[C@H](NC(=O)[C@H](C)NC(=O)[C@@H]1CCCN1C(=O)[C@H](CC(C)C)NC(=O)[C@@H](N)Cc1ccccc1)C(=O)N[C@H](C(=O)NCC(=O)N[C@@H](CCSC)C(=O)N[C@@H](C)C(=O)N[C@@H](C)C(=O)N[C@@H](CCCCN)C(=O)N[C@H](C(=O)N[C@@H](CC(C)C)C(=O)N1CCC[C@H]1C(=O)N[C@@H](C)C(=O)N[C@@H](Cc1ccccc1)C(=O)N[C@@H](CC(C)C)C(=O)N[C@H]1CSSC[C@@H](C(=O)O)NC(=O)[C@H](CCCCN)NC(=O)[C@H](CCCCN)NC(=O)[C@H]([C@@H](C)O)NC(=O)[C@H]([C@@H](C)CC)NC(=O)[C@H](CCCCN)NC1=O)C(C)C)[C@@H](C)CC [FLPAIIGMAAKVLPAFLCKITKKC]

- MIC [17]: ≥ 70.7 µM
- MIC [18]: ≥ 141 µM
- MIC [19]: ≥ 141 µM
Compound: CC(C)[C@H](NC(=O)[C@H](CCCCN)NC(=O)[C@H](CCCCN)NC(=O)[C@H](C)NC(=O)[C@H](CCCCN)NC(=O)[C@H](CCCCN)NC(=O)[C@H](Cc1ccccc1)NC(=O)[C@H](Cc1ccccc1)NC(=O)[C@H](CCCCN)NC(=O)[C@H](CCCCN)NC(=O)[C@H](Cc1c[nH]c2ccccc12)NC(=O)CN)C(=O)N[C@@H](Cc1c[nH]c2ccccc12)C(=O)N[C@@H](CCCCN)C(=O)O [GWKKFFKKAKKVWK]

- MIC [20]: 3.07 µM (≈ 9.4 µg/mL)
- MIC [21]: 13.1 µM (≈ 40.1 µg/mL)
- MIC [2]: 3.07 µM (≈ 9.4 µg/mL)
- MIC [10]: ≥ 32.7 µM
- MIC [9]: ≥ 32.7 µM
- MIC [22]: 1.54 µM (≈ 4.7 µg/mL)
- MIC [23]: 9.8 µM (≈ 30 µg/mL)
- MIC [24]: 3.07 µM (≈ 9.4 µg/mL)
- MIC [25]: 24.5 µM (≈ 75 µg/mL)
- MIC [12]: 2.9 µM (≈ 8.88 µg/mL)
- MIC [26]: ≥ 32.7 µM
- MIC [27]: > 32.7 µM
- MIC [28]: 0.392 µM (≈ 1.2 µg/mL)
- MIC [29]: ≥ 32.7 µM
- MIC [30]: ≥ 32.7 µM
- MIC [31]: 6.14 µM (≈ 18.8 µg/mL)
- MIC [32]: ≥ 32.7 µM
- MIC [33]: 0.196 µM (≈ 0.6 µg/mL)
- MIC [34]: 13.4 µM (≈ 41 µg/mL)
- MIC [35]: 0.392 µM and > 0.196 µM
- MIC [37]: 3.07 µM (≈ 9.4 µg/mL)
- MIC [38]: 13.1 µM (≈ 40.1 µg/mL)
- MIC [39]: 13.1 µM (≈ 40.1 µg/mL)
- MIC [40]: 13.1 µM (≈ 40.1 µg/mL)
Compound: CC[C@H](C)[C@H](NC(=O)[C@H](CCSC)NC(=O)[C@H](CC(C)C)NC(=O)[C@H](Cc1ccccc1)NC(=O)[C@H](CCC(N)=O)NC(=O)[C@H](Cc1ccc(O)cc1)NC(=O)[C@H](CCCN=C(N)N)NC(=O)[C@@H](NC(=O)[C@@H](NC(=O)[C@@H](NC(=O)[C@H](CO)NC(=O)CNC(=O)[C@H](CCCN=C(N)N)NC(=O)[C@H](CCCN=C(N)N)NC(=O)[C@@H](N)CCCCN)C(C)C)[C@@H](C)O)[C@@H](C)O)C(=O)N[C@@H](Cc1cnc[nH]1)C(=O)N[C@@H](CC(C)C)C(=O)N[C@@H](CC(C)C)C(=O)N[C@@H](CCCN=C(N)N)C(=O)N1CCC[C@H]1C(=O)N[C@@H](CCCCN)C(=O)N[C@@H](CCCCN)C(=O)N[C@@H](CC(C)C)C(=O)N[C@@H](Cc1ccccc1)C(=O)N[C@@H](C)C(=O)O [KRRGSVTTRYQFLMIHLLRPKKLFA]
- MIC [36]: 0.196 µM (≈ 0.6 µg/mL)
